The term IC50 denotes the concentration needed to halve the response being measured. The term CC50 denotes the concentration giving 50% cytotoxicity. Broadly, the half-life is how long it takes for the measured level to halve.

Where two headings read alike, the source gives them in different places. Starred links: 1 amine or outer side, 2 acyl side, 3 side chain; linkers in the order of their positions; H or OH if unused. Positions of bridges follow the written chain, without caps; N, C: chain ends. Non-standard residues stand in square brackets, D forms with d. Residues, ends and D or L forms follow the SMILES beside them. *: point of attachment. hTyr(3S-OH,4S-OH,3'-OSO3H) = N[C@H](C(=O)O)[C@H](O)[C@@H](O)c1ccc(O)c(OS(=O)(=O)O)c1; pTerphenylCO(4''-OnC5H11) = CCCCCOc1ccc(-c2ccc(-c3ccc(C(=O)*)cc3)cc2)cc1; Orn(4R-OH,5R-OH) = O=C([C@H](C[C@@H](O)[C@@H](O)N[*:3])N[*:1])[*:2]; hTyr(3S-OH,4S-OH) = N[C@H](C(=O)O)[C@H](O)[C@@H](O)c1ccc(O)cc1; Pro(3S-OH,4S-Me) = C[C@H]1CN[C@H](C(=O)O)[C@H]1O; X1 = CCCCCOc1ccc(-c2cc(-c3ccc(C(=O)*)cc3)no2)cc1; Gln(3R-OH) = NC(=O)C[C@@H](O)[C@H](N)C(=O)O; Hyp = O=C(O)[C@@H]1C[C@@H](O)CN1

Series [1] concerns SARS-CoV-2 Wuhan strain. The series is classed as cell-based.
Series [2] deals with SARS-CoV-2 Wuhan strain. The conditions noted are these: VeroE6/TMPRSS2 cells, essentially in the same experimental condition; ref Ohashi et al. [29]; read-out: SARS-CoV-2 RNA IC50; cited from earlier work.
The subject of another series is VeroE6/TMPRSS2 cells. The note with it: read-out: Cell Viability CC50, essentially in the same experimental condition, ref Ohashi et al. [29]; cited from earlier work.
The test system of series [3] is Dengue virus serotype 2 (DENV-2). Further details: method as in ref [12] = [12]. The conditions noted are these: Vero cells; ref [12]; read-out: IC50, DENV-2 infection; cited from earlier work.
A further series deals with 3CLpro. Details: method as in ref [33] = [33]. The conditions noted are these: in vitro; ref [33]; read-out: IC50, 3CLpro enzymatic activity; cited from earlier work.
Series [4] concerns SARS-CoV-2 Wuhan strain. Nature of the series: microbe, parasite or virus in culture. The series is classed as cell-based. The note with it: Severe acute respiratory syndrome coronavirus 2, 24 h, Calu-3 cells, 3 h inoculation plus 21 h, read-out: SARS-CoV-2 RNA IC50.
Details of series [5]: method as in ref [7] = [7]. The conditions noted are these: human adults, 100 mg daily; ref [7]; cited from earlier work.
A further series relates to Zika virus (ZIKV). Further details: method as in ref [14] = [14]. The conditions noted are these: Vero cells; ref [14]; read-out: IC50, ZIKV infection; cited from earlier work.
Series [6] relates to SARS-CoV-2 Wuhan strain. Kind of series: microbe, parasite or virus in culture. The note with it: VeroE6/TMPRSS2 cells; for IC50: Severe acute respiratory syndrome coronavirus 2, Wuhan strain, MOI 0.003, extracellular viral RNA at 24 h. The series is classed as cell-based.
Series [7] in a line: Cell viability (cell-counting kit-8, WST-8) in VeroE6/TMPRSS2 cells. The conditions noted are these: African green monkey, 24 h with compound. The series is classed as cell-based. A general note: Tetrazolium assays rely on reduction of a dye to a coloured formazan, in cell work by metabolically active cells.
For series [8], the system named is Enterovirus 71 (EV71) replicon. Details: method as in ref [10] = [10]. The note with it: Vero cells, estimated; ref [10]; read-out: IC50 to luciferase carrying EV71 replicon; cited from earlier work.
Another series has as its system SARS-CoV-2. The note with it: Vero cells, read-out: IC50, SARS-CoV-2 infection, cited from earlier work.
In series [9] the test system is Chikungunya virus (CHIKV). Details: method as in ref [11] = [11]. The note with it: U2OS or BHK-21 cells; ref [11]; read-out: IC50, CHIKV infection; cited from earlier work.
The nature of series [10]: Cell viability (cell-counting kit-8, WST-8) in Calu-3 cells. The series is classed as cell-based. The conditions noted are these: human, 24 h with compound.
For another series, the target named is helicase of DENV-2. Details: method as in ref [13] = [13]. The conditions noted are these: in vitro; ref [13]; read-out: IC50, DENV-2 helicase enzymatic activity; cited from earlier work.

With `CCC(CC)COC(=O)[C@H](C)N[P@](=O)(OC[C@H]1O[C@@](C#N)(c2ccc3c(N)ncnn23)[C@H](O)[C@@H]1O)Oc1ccccc1` [Remdesivir], in the series on SARS-CoV-2 Wuhan strain [1], the “effect on viral RNA levels, compound added at post-entry phase” value is “remarkable antiviral activity” and the “effect on viral RNA levels, compound added at virus entry phase” value is on record as “no inhibitory effect”. Also, the IC50 in the series on SARS-CoV-2 Wuhan strain [2] is 1.58 µM. Moreover, the CC50 in the series on VeroE6/TMPRSS2 cells was over 64 µM.

On to `COc1ccc2cc1Oc1ccc(cc1)C[C@H]1c3c(cc4c(c3Oc3cc5c(cc3OC)CCN(C)[C@@H]5C2)OCO4)CCN1C` [Cepharanthine], for which, in the series on SARS-CoV-2 Wuhan strain [1], the “effect on viral RNA levels, compound added at post-entry phase” value is reported as “lower viral activity” and the “effect on viral RNA levels, compound added at virus entry phase” value is “considerable inhibition”. For the same molecule, the half-inhibitory concentration (IC50) with SARS-CoV-2 Wuhan strain [2] was 0.35 µM. In the series with VeroE6/TMPRSS2 cells, the CC50 is 25.1 µM.

In the case of `CCCCCOc1ccc(-c2cc(-c3ccc(C(=O)N[C@H]4C[C@@H](O)[C@@H](O)NC(=O)[C@@H]5[C@@H](O)[C@@H](C)CN5C(=O)[C@H]([C@H](O)CC(N)=O)NC(=O)[C@H]([C@H](O)[C@@H](O)c5ccc(O)c(OS(=O)(=O)O)c5)NC(=O)[C@@H]5C[C@@H](O)CN5C(=O)[C@H]([C@@H](C)O)NC4=O)cc3)no2)cc1` [Micafungin] (X1-[Orn(4R-OH,5R-OH)]T[Hyp][hTyr(3S-OH,4S-OH,3'-OSO3H)][Gln(3R-OH)][Pro(3S-OH,4S-Me)]; lactam 1-C), the IC50 was 10.2 µM in [3]; 47.6 µM with 3CLpro; 55.3 µM in the series with SARS-CoV-2 Wuhan strain [4]; 7.35 µM with Zika virus (ZIKV); 26.1 µM in the series on SARS-CoV-2 Wuhan strain [6]; 5 to 8 µM in series [8]. The values for the IC50 (in the series on SARS-CoV-2 (ref [15]); in series [9]; at helicase of DENV-2) were 5.5 to 12.9 µM, 20.6 µM and 4.98 µM, respectively. Moreover, the half-life in series [5] is 11 to 17 h. The “selectivity index (SI = CC50/IC50)” value in the series with SARS-CoV-2 Wuhan strain [6] is over 2.45. For the same molecule, the CC50 at 24 h in series [7] and in series [10] was over 64 µM each time.

For the molecule `CC[C@H](C)C[C@H](C)CCCCCCCCC(=O)N[C@H]1C[C@@H](O)[C@@H](NCCN)NC(=O)[C@@H]2[C@@H](O)CCN2C(=O)[C@H]([C@H](O)CCN)NC(=O)[C@H]([C@H](O)[C@@H](O)c2ccc(O)cc2)NC(=O)[C@@H]2C[C@@H](O)CN2C(=O)[C@H]([C@@H](C)O)NC1=O` [Caspofungin], the values for the IC50 (in series [3]; in the series on Zika virus (ZIKV); with SARS-CoV-2 Wuhan strain [6]) were 20.8 µM, 75.8 µM and over 64 µM, respectively. Moreover, the “effect on viral RNA levels (in words)” value with SARS-CoV-2 Wuhan strain [6] (up to 64 µM) was “did not show any antiviral effect”. For the same molecule, the 50% cytotoxic concentration (CC50) at 24 h in series [7] is over 64 µM.

Consider `CCCCCOc1ccc(-c2ccc(-c3ccc(C(=O)N[C@H]4C[C@@H](O)[C@@H](O)NC(=O)[C@@H]5[C@@H](O)[C@@H](C)CN5C(=O)[C@H]([C@@H](C)O)NC(=O)[C@H]([C@H](O)[C@@H](O)c5ccc(O)cc5)NC(=O)[C@@H]5C[C@@H](O)CN5C(=O)[C@H]([C@@H](C)O)NC4=O)cc3)cc2)cc1` [Anidulafungin] ({pTerphenylCO(4''-OnC5H11)}-[Orn(4R-OH,5R-OH)]T[Hyp][hTyr(3S-OH,4S-OH)]T[Pro(3S-OH,4S-Me)]; lactam 1-C), for which the IC50 in [3] is 3.24 µM; with Zika virus (ZIKV), 2.08 µM; with SARS-CoV-2 Wuhan strain [6], 7.09 µM; in the series on SARS-CoV-2 (ref [16]), 4.64 µM. For the same molecule, the CC50 at 24 h in series [7] came out at 24.6 µM.

The values above are taken from article PMC9958940 (Viruses, 2023).
